Measured values reported in patent US20050003022A1 (priority 2002, published 2005).

How the values were obtained:
influenza virus = system: influenza virus; parameters: species or system small mice; settings: in vivo
influenza = settings: in vivo; cited from earlier work
[1] = in vivo; cited from earlier work

Row | SMILES | small mouse protection ratio (ED50) (influenza virus) [mg/kg] | median day for alleviating influenza symptoms (influenza) [days] | reduction from average influenza case (influenza) [days] | utilization ratio of oral taken drug [1] [%]
1 | NC(=O)c1ncn([C@@H]2O[C@H](CO)[C@@H](O)[C@H]2O)n1 [Ribavirin] | 25 |  |  | 
2 | CC(=O)N[C@H]1[C@H]([C@H](O)[C@H](O)CO)OC(C(=O)O)=C[C@@H]1N=C(N)N [Zanamivir] |  | 6.5 | 1.3 | 2
